In patent publication US20210015134A1, “CONSUMABLES” (Givaudan S.A., priority 2006, published 2021):

Tests used:
Format in all cases: in vivo
[1] = test system: sweet sensitive panelists; assay: Ranking test, near threshold sweetness isointensity of enhancer in water (Example 3b)
Protocol: The sensory evaluation was conducted using a ranking method. Samples at ambient temperature were randomly presented in 15 ml blind aliquots (unidentifiable by panelists). […] After tasting each sample, the mouth was rinsed thoroughly with water at ambient temperature prior to tasting the next sample. […] They were asked to rank the samples from low to high with respect to perceived sweet taste.

[2] = test system: sweet sensitive panelists; assay: Ranking test, sweetness isointensity of enhancer in sweetener solution (Example 3a)
Protocol: Ranking Tests to Determine the Sweetness Isointensity of Sweetness Enhancers to Sucrose Solutions
For comparative ranking, samples of 0.5%, 1%, 1.5%, 7%, 8%, 9%, 10% and 11% sucrose solutions were prepared.
3a) Sweetness Isointensity of Sweetness Enhancer in Sucrose Solutions
The sensory evaluation was conducted using a ranking method. Samples at ambient temperature were randomly presented in 15 ml blind aliquots (unidentifiable by panelists). Panels consisted of 10 sweet sensitive subjects and samples were presented in 4 replications over 2 sessions. After tasting each sample, the mouth was rinsed thoroughly with water at ambient temperature prior to tasting the next sample. Panelists were presented with 7%, 8%, 9%, 10%, 11% sucrose samples and a sixth sample of 7% sucrose with a sweetness enhancer in a concentration near its sweetness detection threshold. They were asked to rank the samples from low to high with respect to perceived sweet taste. R-indices were calculated for 7% sucrose with the sweetness enhancer versus 7%, 8%, 9%, 10% or 11% sucrose.

[3] = test system: sweet sensitive panelists; assay: Comparative sensory evaluation of sweetness enhancers in sweetener solution or water (Example 1)
Protocol: Comparative sensory evaluation of sweetness enhancers in 2 or 7% sucrose
The test samples contained the potential sweetness enhancers in 0% sucrose (water), 2% sucrose, or 7% sucrose, and control samples of 0%, 2% and 7% sucrose without any additive. The sensory evaluations were conducted as follows. All samples were presented at ambient temperature in 15 ml aliquots to panels consisting of 5-9 sweet sensitive subjects of varying sweet sensitivity. After tasting each sample, the mouth was rinsed thoroughly with water at ambient temperature prior to tasting the next sample. The sucrose positive control (2% or 7%) was presented first and served as the sweetness reference to which all sweetness enhancer/sucrose combinations were directly compared.
One tasting sequence included tasting the sucrose control first, rinsing with water, tasting the sweetness enhancer/sucrose sample, rinsing with water followed by tasting the sucrose control again. Once the sequence was completed, each panelist chose the sample which was sweeter and evaluated the sweetness of each sample relative to one another.
In a second tasting sequence, this same procedure was followed for the water negative control versus the sweetness enhancer/water samples to determine the sweet taste due to the sweetness enhancer itself at each tested concentration.
Panelists evaluated the sweetness of the sweetness enhancer in water for each concentration. For their evaluation, panelists were allowed to compare any perceived sweetness of the sweetness enhancer to the 2% or 7% sucrose control to determine the relative intensity of sweetness. Mild sweet taste corresponds to the taste of 2% sucrose, strong sweet taste corresponds to the taste of 7% sucrose.
Alternatively to sucrose, the evaluation may be performed with another sweetener, for example, high fructose (55%) corn syrup (HFCS, containing 55% fructose and 45% glucose), erythritol, sucralose, aspartame, or acesulfame potassium (AceK).

[4] = test system: sweet sensitive panelists; assay: Paired comparison of sweetness enhancers in water versus sucrose (Example 4, modified)
Protocol: Paired Comparisons of Sweetness Enhancers and Mixtures Thereof in Water and 7% Sucrose
Samples of sweetness enhancers were prepared in water or 7% sucrose. One, two or three sweetness enhancers were used in a sample. All samples were presented to panelists at ambient temperature. The sensory evaluation was conducted using a paired comparison method. […] Samples were paired randomly and presented in unidentifiable pairs of two (left and right) to the panelists in random order. The sample on the left was tasted first, followed by rinsing the mouth with water, then tasting the sample on the right. Once completing the sequence, each panelist ranked the pair of samples for sweetness then evaluated samples with respect to one another with the following descriptors (in ascending order): […]

[5] = 45 ppm in water vs 0.5% sucrose
[6] = 60 ppm in water vs 1.5% sucrose

SMILES: C[C@@H]1O[C@@H](OC2C(Oc3cc(O)c(C(=O)CCc4ccc(O)cc4)c(O)c3)OC(CO)C(O)C2O)[C@H](O)[C@H](O)[C@H]1O (stereo in doubt) [NarDHC, -[4-[[2-O-(6-Deoxy-L-mannopyranosyl)-D-glucopyranosyl]oxy]-2,6-dihydroxyphenyl]-3-(4-hydroxyphenyl)-1-propanone]
- isointensity to sucrose solution ([1]; 45 ppm in water): 0.5 % sucrose
- sample sweetness (NarDHC, 45 ppm) [1, 5]: Isosweet
- sample sweetness (NarDHC, 45 ppm) ([1]; 45 ppm in water vs 1% sucrose): less sweet
- sample sweetness (NarDHC, 60 ppm) ([1]; 60 ppm in water vs 0.5% sucrose): sweeter
- sample sweetness (NarDHC, 60 ppm) ([1]; 60 ppm in water vs 1% sucrose): sweeter
- sample sweetness (NarDHC, 60 ppm) [1, 6]: less sweet
- added sucrose sweetness intensity ([2]; 45 ppm in 7% sucrose): 1 ° Brix
- sweetness isointensity to sucrose ([2]; 45 ppm in 7% sucrose): 8 % sucrose
- NarDHC sample sweetness ([2]; 45 ppm in 7% sucrose vs 7% sucrose): sweeter
- NarDHC sample sweetness ([2]; 45 ppm in 7% sucrose vs 8% sucrose): isosweet
- NarDHC sample sweetness ([2]; 45 ppm in 7% sucrose vs 9% sucrose): less sweet
- NarDHC sample sweetness ([2]; 45 ppm in 7% sucrose vs 10% sucrose): less sweet
- NarDHC sample sweetness ([2]; 45 ppm in 7% sucrose vs 11% sucrose): less sweet
- added sucrose sweetness intensity ([2]; 60 ppm in 7% sucrose): 2 ° Brix
- sweetness isointensity to sucrose ([2]; 60 ppm in 7% sucrose): 9 % sucrose
- NarDHC sample sweetness ([2]; 60 ppm in 7% sucrose vs 7% sucrose): Sweeter
- NarDHC sample sweetness ([2]; 60 ppm in 7% sucrose vs 8% sucrose): Sweeter
- NarDHC sample sweetness ([2]; 60 ppm in 7% sucrose vs 9% sucrose): Isosweet
- NarDHC sample sweetness ([2]; 60 ppm in 7% sucrose vs 10% sucrose): less sweet
- NarDHC sample sweetness ([2]; 60 ppm in 7% sucrose vs 11% sucrose): less sweet
- Sensory evaluation of sweetness intensity ([3]; 20 ppm in 2% sucrose): notably sweeter than sucrose control
- Sensory evaluation of sweetness intensity ([3]; 20 ppm in water): barely perceived delayed sweetness vs. 2% sucrose
- Sensory evaluation of sweetness intensity ([3]; 60 ppm in 2% sucrose): much sweeter than sucrose control
- Sensory evaluation of sweetness intensity ([3]; 60 ppm in water): very weak delayed sweetness far below 2% sucrose
- Sensory evaluation of sweetness intensity ([3]; 100 ppm in 2% sucrose): substantially sweeter than 2% sucrose control
- Sensory evaluation of sweetness intensity ([3]; 100 ppm in water): mild sweetness slightly below 2% sucrose control
- Result of comparison ([4]; 45 ppm in water vs 0% sucrose): weakly sweeter
- Result of comparison [4, 5]: isosweet
- Result of comparison ([4]; 45 ppm in water vs 1% sucrose): less sweet
- Result of comparison ([4]; 50 ppm in water vs 0.5% sucrose): notably sweeter
- Result of comparison ([4]; 50 ppm in water vs 1% sucrose): less sweet
- isointensity to sucrose solution ([4]; 55 ppm in water): 1 % sucrose
- Result of comparison ([4]; 55 ppm in water vs 0.5% sucrose): notably sweeter
- Result of comparison ([4]; 55 ppm in water vs 1% sucrose): isosweet
- Result of comparison ([4]; 60 ppm in water vs 1% sucrose): notably sweeter
- Result of comparison [4, 6]: significantly less sweet
